In patent US11498853B2, “Water with switchable ionic strength” (QUEEN'S UNIVERSITY AT KINGSTON, priority 2010, dated 2022):
“And” between values parts separate entries of the source, which are not always exact repeats. Equal values may be shown once. Read-outs that look alike come from different tables or passages of the source. Values belong to the compound of their own block, whether it stands above or below them.

Legend:
[1] = Miscibility of diamines and triamines with water in presence and absence of CO2; type: physicochemical; conditions: 5:1 w/w water and liquid additive; for Miscibility with water, After addition of CO2: CO2 90 min; for Miscibility with water, Before addition of CO2: room temperature
Procedure: A 5:1 w/w solution of water and the liquid additive (total volume 5 m) were mixed together in a glass vial at room temperature. Whether the mixture formed one or two liquid phases was visually observed. Then CO2 was bubbled through the mixture via a single narrow gauge steel needle at a flow rate of ˜5 ml min^−1 for 90 min. Whether the mixture formed one or two phases was visually observed.

[2] = Solvent switching of diamidine/water system, 1H NMR; type: physicochemical; conditions: 0.80 molal, 30 minutes CO2
Procedure: The diamidine was investigated as additive for switchable ionic strength solutions. […] The volumes of each phase were recorded.

[3] = Separation of THF from aqueous phase and retention of additive on switching with CO2, by 1H NMR; type: physicochemical
Procedure: (§1) The volumes of each phase were recorded.
The graduated cylinders were capped with rubber septa. […] A second narrow gauge steel tube was provided to vent the gaseous phase.
as §1

[4] = Zeta potential of suspended clay fines in switchable water; type: physicochemical
Procedure: (§2) Clay fines were weighed and placed into individual vials (0.025 g, Ward's Natural Science Establishment). Kaolinite and montmorilonite were used as received, but as illite day was ground into a powder using a motar and pestle. Solutions containing additives were made with deionized water (18.2 MΩ/cm, Millipore) and 10 ml was added to the clay fines. A suspension was created using a vortex mixer and subsequently dispensed into a folded capillary cell. The zeta potential was measured using a Malvern Zetasizer instrument. The errors reported on the zeta potential values were the standard deviations of the zeta potential peaks measured.
(§3) Unless specified, all carbon dioxide treatments were conducted with the aqueous solutions prior to addition to day fines. For applicable measurements, ultra pure carbon dioxide (Supercritical CO2 Chromatographic Grade, Paxair) was bubbled through the solutions using a syringe.

[5] = as above; type: physicochemical; conditions: Kaolinite
Procedure: as §2, §3
Another experiment was performed in which CO2 was bubbled through a 1 mM aqueous solution of TMDAB that already contained clay fines (a method referred to as “switching in situ”).

[6] = Reversible protonation of amine additives in H2O monitored by conductivity; type: physicochemical
Procedure: 1:1 w/w H2O and THEED was used because a 1:1 v/v solution was too viscous to pour accurately. A trigger gas chosen from CO2, air or nitrogen was bubbled at identical flow rates through the solution via a narrow gauge steel tube and the conductivity of the solution was measured periodically using a Jenway 470 Conductivity Meter (Bibby Scientific, NJ, US) having a cell constant of 1.02 cm^−1.
The deprotonation reactions of the ionic solutions of additives in water were monitored in a similar manner, and the conductivity plot is shown in FIG. 8.
1:1 v/v solutions of the various additives and distilled, deionised water were prepared in six dram glass vials and transferred to a fritted glass apparatus which acted as a reaction vessel. The fritted glass apparatus consisted of a long narrow glass tube leading to a fine glass frit having a diameter of approximately 4 cm. The other end of the glass frit was connected to a cylindrical glass tube which held the solution of the additive during contacting with the trigger gas. This apparatus allowed a multiple source of trigger gas bubbles to contact the solution, compared to the single point source of Example 5.
A trigger gas chosen from CO2, air or nitrogen was bubbled through the solution via the glass frit at a flow rate of 110 ml min^−1 as measured by a J&W Scientific ADM 2000 Intelligent Flowmeter (CA, USA). For each conductivity measurement, the solution was transferred back to a six dram vial, cooled to 298 K and measured in triplicate. Conductivity measurements were performed using a Jenway 470 Conductivity Meter (Bibby Scientific, NJ, US) having a cell constant of 1.02 cm^−1.

[7] = 0.80 molal
Procedure: The methylated spermine was investigated as additive for switchable ionic strength solutions. To measure the extent of THF being forced out of an aqueous phase by an increase in ionic strength, and the amounts of amine, which remained in the aqueous phase, 1:1 w/w solutions of THF and water were prepared in graduated cylinders. The appropriate mass of amine additive to result in a 0.80 molal solution was added and the cylinders were capped with rubber septa. […] The volumes of each phase were recorded. Aliquots of the non-aqueous and aqueous layers were taken and dissolved in d3-acetonitrile in NMR tubes. A known amount of ethyl acetate was added to each NMR tube as an internal standard. ^1H NMR spectra were acquired and through integration of the ethyl acetate standard, a concentration of THF or additive was calculated and scaled up to reflect the total volume of the aqueous or non-aqueous phase giving a percentage of the compound being forced out or retained. Then argon was bubbled through the solution while heating to 50° C. until the two phases recombined (15 to 60 min). The whole switching process (30 min CO2, sample take, then another 30 min of Ar) was repeated.

[8] = Degree of protonation/deprotonation of amine additives in D2O by 1H NMR; conditions: 0.1 M in D2O; for degree of protonation by CO2: room temperature
Procedure: In order to establish the chemical shifts of the protonated bases, molar equivalents of several strong acids, including HCl and HNO3, were added to separate solutions of the amines dissolved in D2O. ^1H NMR spectra were acquired on a Bruker AV-400 NMR spectrometer at 400.3 MHz for three replicate solutions of each amine. An average value of each chemical shift for each protonated base was calculated along with standard deviations. […] The ^1H NMR chemical shifts of the unprotonated amines were also measured.
The amine was dissolved in D2O in an NMR tube and sealed with a rubber septa. The spectrum was then acquired. Subsequently, two narrow gauge steel needles were inserted and gas was gently bubbled through one of them into the solution at approximately 4-5 bubbles per second. The second needle served as a vent for the gaseous phase.
Firstly CO2 was bubbled through the solution for the required length of time and then the spectrum was re-acquired. This process was repeated. The % protonation of the amine was determined from the observed chemical shifts by determining the amount of movement of the peaks from the normal position for the unprotonated amine towards the position expected for the fully protonated amine.
Nitrogen gas was flushed through the solution at 75° C.
In order to establish the chemical shifts of the protonated bases, molar equivalents of several strong acids, including HCl and HNO3, were added to separate solutions of the tetraamine dissolved in D2O. ^1H NMR spectra were acquired on a Bruker AV-400 NMR spectrometer at 400.3 MHz for three replicate solutions of the amine. An average value of each chemical shift for each protonated base was calculated along with standard deviations. […] The ^1H NMR chemical shifts of the unprotonated amine were also measured. […]

[9] = Salting out THF from water using secondary amine additives, 1H NMR; type: physicochemical; conditions: 1.60 molal, 1:1 w/w THF:water, 30 minutes CO2
Procedure: N-tert-Butylethanolamine and N-ter-butymethylamine were investigated as additives for switchable ionic strength solutions. […] The volumes of each phase were recorded. […] The recombining of the phases when N-tert-butymethylamine was used as an additive was not successful at 30 min but was achieved by 2 h at a higher Ar flow rate of 15 mL/min. THF was added afterwards to replace the amount of THF being evaporated during the procedure.

[10] = Expulsion of THF from water and removal of additive from the aqueous phase; type: physicochemical; conditions: for additive removed from the aqueous phase after N2 treatment: separated aqueous phase, N2 90 minutes, 60° C.
Procedure: 1.50 g H2O, 1.50 g THF, and 0.30 g N,N,N′N′-tetraethyl-1,4-diaminobutane (TEDAB) were mixed together in a graduated cylinder to generate a single phase solution. […] A small stir bar was added to the solution and the cylinder was capped with a rubber septa. The following procedure was run in triplicate with a new sample (of the same contents shown above) each time.
A long, narrow gauge needle was inserted through the septa into the solution. […] CO2 was bubbled through the solution a flow rate of about 5 ml/min for 45 minutes with stirring until a 2nd phase creams out on top of the aqueous phase. The CO2 bubbling was stopped and the needles withdrawn. The cylinder was immersed in a hot water bath for several seconds to facilitate the separation of the liquid phases. Both phases were clear and yellow in colour.
The organic phase was decanted off giving a mass of 1.253 g (density=0.84 g/m).
A 39.1 mg sample of the organic phase was placed in an NMR tube with deuterated acetonitrile and 50.2 mg ethyl acetate to act as an internal standard. A 66.2 mg sample of the aqueous phase was placed in a 2nd NMR tube with deuterated acetonitrile with 22.3 mg ethyl acetate to act as an internal standard. A ^1H NMR spectra was acquired and knowing the corresponding amount of ethyl acetate in each sample the resulting amounts of THF in the aqueous sample and additive in the organic sample can be calculated. Knowing the mass, volume, and density of each layer, the total amount of THF or additive in a respective layer can be calculated.
1.943 g (1.90 ml) of the aqueous phase was returned to the same graduated cylinder. The needles and septa were put back into the cylinder and the cylinder was immersed in a 60° C., water bath. N2 was introduced in the same fashion as CO2 preformed previously and the N2 was bubbled through the solution for 90 minutes where a deep yellow organic phase creams out of the aqueous phase.
A 37.9 mg sample of the aqueous phase was taken up in an NMR tube with deuterated acetonitrile and 41.5 mg ethyl acetate to act as an internal standard.

[11] = 0.80 molal additive, 1:1 w/w THF:H2O, 30 min CO2, in aqueous phase
[12] = 1:1 v/v additive:water, 25° C., glass frit
[13] = 1:1 v/v, N2 at 80° C., glass frit

SMILES: CN(C)CC1CC(CN(C)C)CC(CN(C)C)C1 (stereo not drawn) [1,3,5-cycloC6H9(CH2NMe2)3, 1,1′,1″-(cyclohexane-1,3,5-triyl)tris(N,N,-dimethylmethanamine)]
Miscibility with water, After addition of CO2 [1]: miscible | Miscibility with water, Before addition of CO2 [1]: immiscible

SMILES: CN(C)CCCN(C)CCCCN(C)CCCN(C)C [MeSpe, N^1,N^1′-(butane-1,4-diyl)bis(N^1,N^2,N^3-trimethylpropane-1,3-diamine)]
Additive retained in THF ([7]; 30 min CO2, run 1): 99.85% | Additive retained in THF ([7]; 30 min CO2, run 2): 99.79% | degree of protonation by CO2 [8]: 93%

SMILES: CNC(C)(C)C [N-tert-butymethylamine]
Additive retained in H2O [9]: 99.75 ± 0.04%

SMILES: CCCN(CCC)CCCCN(CCC)CCC [Pr2NCH2CH2CH2CH2NPr2, N,N,N′,N′-tetrapropyl-1,4-diaminobutane]
Miscibility with water, After addition of CO2 [1]: immiscible | Miscibility with water, Before addition of CO2 [1]: immiscible

SMILES: CCN(CC)CCCCN(CC)CC [TEDAB, N, N, N′, N′-tetraethyl-1,4-diaminobutane]
Miscibility with water, After addition of CO2 [1]: miscible | Miscibility with water, Before addition of CO2 [1]: immiscible | additive residing in the aqueous phase after CO2 treatment ([10]; 1.50 g H2O, 1.50 g THF, 0.30 g additive, CO2 45 minutes): 91.1±3.7% | additive removed from the aqueous phase after N2 treatment [10]: 49.3±6.3%

SMILES: OCCN(CCO)CCN(CCO)CCO [THEED, N, N, N′, N′-tetrakis(2-hydroxyethyl) ethylenediamine]
degree of deprotonation ([8]; N2 bubbling at 75° C., 2 hours (120 minutes)): 98% | degree of protonation by CO2 ([8]; by 10 minutes): 49%

The next lines start with the values.

Miscibility with water, After addition of CO2 [1]: miscible | Miscibility with water, Before addition of CO2 [1]: miscible
SMILES: CN(C)Cc1cc(CN(C)C)cc(CN(C)C)c1 [1,3,5-C6H3(CH2NMe2)3, N,N,N′,N′,N″,N″-1,3,5-benzenetrimethanamine]

additive retained in the aqueous phase [2]: 99.5%
SMILES: C/C(=N\CCCC/N=C(\C)N(C)C)N(C)C [DIAC, N,N-(butane-1,4-diyl)bis(N,N-dimethylacetimidamide)]

% Additive Retained [3, 11]: 98.8 ± 0.4% | % Additive Retained ([3]; THF:H2O:Additive 3:3:1 w/w/w): 87.1 ± 7.3% | % Additive Retained ([3]; THF:H2O:Additive 5:5:1 w/w/w): 98.4 ± 0.4% | % Additive Retained ([3]; THF:H2O:Additive 10:10:1 w/w/w): 96.0 ± 0.8% | % Additive Retained ([3]; THF:H2O:Additive 15:15:1 w/w/w): 94.4 ± 1.1% | Zeta Potential ([4]; Illite, 0.8 molal additive): −19.1 ± 3.92 mV | Zeta Potential ([4]; Illite, 0.8 molal additive + 1 h CO2): −1.87 mV | Zeta Potential ([4]; Montmorillonite, 0.8 molal additive): −16.8 ± 4.64 mV | Zeta Potential ([4]; Montmorillonite, 0.8 molal additive + 1 h CO2): −2.99 mV | Zeta Potential ([5]; 0.8 molal additive): −24.3 ± 2.29 mV | Zeta Potential ([5]; 0.8 molal additive + 1 h CO2): −3.99 mV | conductivity on CO2 bubbling [6, 12]: lower conductivities than TMDAB
SMILES: CC(O)CN(CCCN(C)C)CCCN(C)C (stereo not drawn) [DMAPAP]

% Additive Retained [3, 11]: 99.3 ± 0.4% | % Additive Retained ([3]; THF:H2O:Additive 3:3:1 w/w/w): 95.6 ± 1.5% | % Additive Retained ([3]; THF:H2O:Additive 5:5:1 w/w/w): 98.4 ± 1.2% | % Additive Retained ([3]; THF:H2O:Additive 10:10:1 w/w/w): 98.0 ± 1.0% | % Additive Retained ([3]; THF:H2O:Additive 15:15:1 w/w/w): 98.2 ± 0.3% | conductivity on CO2 bubbling [6, 12]: lower conductivities than TMDAB | conductivity of ionic form after 20 minutes of N2 [6, 13]: close to zero
SMILES: CN(C)CCN(C)CCN(C)CCN(C)C [HMTETA, 1,1,4,7,10,10-hexamethyl triethylenetetramine]

Additive retained in H2O [9]: 99.84 ± 0.04%
SMILES: CC(C)(C)NCCO [N-tert-butylethanolamine]

Miscibility with water, After addition of CO2 [1]: miscible | Miscibility with water, Before addition of CO2 [1]: immiscible | additive removed from the aqueous phase after N2 treatment [10]: 81%
SMILES: CCCN(CC)CCCCN(CC)CCC [PrEtNCH2CH2CH2CH2NPrEt, N,N′-diethyl-N,N′-dipropyl-1,4-diaminobutane]

% Additive Retained [3, 11]: 99.2 ± 0.4% | % Additive Retained ([3]; THF:H2O:Additive 3:3:1 w/w/w): 87.1 ± 2.1% | % Additive Retained ([3]; THF:H2O:Additive 5:5:1 w/w/w): 99.8% and 99.6 ± 0.1% | % Additive Retained ([3]; THF:H2O:Additive 10:10:1 w/w/w): 99.4 ± 0.1% | % Additive Retained ([3]; THF:H2O:Additive 15:15:1 w/w/w): 98.4 ± 0.4% | reduction of conductivity ([6]; 1:1 v/v H2O:amine, 90 minutes, 80° C., N2 through a glass frit): approximately 95% | rate of conductivity increase on CO2 bubbling [6, 12]: highest rate of conductivity increase | rate of conductivity decrease on N2 flushing [6, 13]: highest
SMILES: CN(C)CCCCN(C)C [TMDAB, N, N, N′, N′-tetramethyl-1,4-diaminobutane]
